Reference: US11566007B2, “Ras inhibitors” (Revolution Medicines, Inc., priority 2019, dated 2023)
Values joined by “and” are separate entries in the source; they are usually repeats but may differ in a detail not shown here. Identical values can stand only once. Like-named read-outs stand apart in the source and are kept apart here.

Legend:
[1] = system: NCI-H358 cells (K-Ras G12C); experiment: Potency assay: pERK in NCI-H358 cells; type: cell-based, human; details: Homo sapiens, NCI-H358; H358 KRAS G12C; read-out: pERK EC50
In short: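 Compounds are dosed as ten 3-fold dilutions from a 10 mM DMSO stock, in duplicate, and left on cells for 4 h at 37 °C, 5% CO2. Phospho-ERK1/2 is then quantified by AlphaLISA SureFire Ultra or In-Cell Western, and IC50 is derived from a 4-parameter sigmoid against log concentration.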

K-Ras G13C = K-Ras G13C (Homo sapiens (Human), UniProt P01116+P62937, G13C); experiment: Ras-Raf (BRAF RBD) disruption / FRET / MOA assay, KRAS G13C; type: biochemical; details: KRAS G13C; Ras-Raf disruption/FRET/MOA assay; read-out: IC50* KRAS G13C FRET data
Sequence of K-Ras G13C (P01116-2 other isoform, or with tags, fused parts or gaps G13C): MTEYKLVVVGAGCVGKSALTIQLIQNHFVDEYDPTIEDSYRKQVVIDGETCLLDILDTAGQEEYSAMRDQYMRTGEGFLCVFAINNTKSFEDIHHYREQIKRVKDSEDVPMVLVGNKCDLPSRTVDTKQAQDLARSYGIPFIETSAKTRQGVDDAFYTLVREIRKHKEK
Sequence of K-Ras G13C (P62937 whole entry, canonical isoform): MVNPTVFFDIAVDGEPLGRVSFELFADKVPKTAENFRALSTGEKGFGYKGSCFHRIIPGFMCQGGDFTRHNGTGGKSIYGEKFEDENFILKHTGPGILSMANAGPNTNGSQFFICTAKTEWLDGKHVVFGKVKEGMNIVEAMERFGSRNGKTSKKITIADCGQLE
Protocol: (§1) The purpose of this biochemical assay is to measure the ability of test compounds to facilitate ternary complex formation between a nucleotide-loaded Ras isoform and cyclophilin A; the resulting ternary complex disrupts binding to a BRAF^RBD construct, inhibiting Ras signaling through a RAF effector.
(§2) Compound is present in plate wells as a 10-point 3-fold dilution series starting at a final concentration of 30 μM. After incubation at 25° C. for 3 hours, a mixture of Anti-His Eu-W1024 and anti-GST allophycocyanin is then added to assay sample wells at final concentrations of 10 nM and 50 nM, respectively, and the reaction incubated for an additional 1.5 hours. […] Compounds that facilitate disruption of a Ras:RAF complex are identified as those eliciting a decrease in the TR-FRET ratio relative to DMSO control wells.
(§3) This protocol may also be executed substituting other Ras proteins or nucleotides.
(§4) The purpose of this biochemical assay was to measure the ability of test compounds to facilitate ternary complex formation between a nucleotide-loaded K-Ras isoform and Cyclophilin A; the resulting ternary complex disrupts binding to a BRAF^RBD construct, inhibiting K-Ras signaling through a RAF effector. Data is reported as IC50 values.
as §2, with “Compound was” for “Compound is”, “allophycocyanin was” for “allophycocyanin is”, “a K-Ras:RAF” for “a Ras:RAF”, “complex were” for “complex are”

KRAS G12D = KRAS G12D (Homo sapiens (Human), UniProt P01116+P62937, G12D); experiment: Ras-Raf (BRAF RBD) disruption / FRET / MOA assay, KRAS G12D; type: biochemical; details: Ras-Raf disruption/FRET/MOA assay; class symbols; read-out: KRAS G12D FRET data IC50
Sequence of KRAS G12D (P01116-2 other isoform, or with tags, fused parts or gaps G12D): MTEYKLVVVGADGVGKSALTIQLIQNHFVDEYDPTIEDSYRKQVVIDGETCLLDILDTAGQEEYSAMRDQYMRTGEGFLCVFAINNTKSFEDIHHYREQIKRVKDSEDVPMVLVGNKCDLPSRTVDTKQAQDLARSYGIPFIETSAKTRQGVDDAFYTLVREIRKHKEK
Sequence of KRAS G12D (P62937 whole entry): as the sequence (P62937 whole entry, canonical isoform) above
In short: (§5)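 Compound-driven ternary complex of nucleotide-loaded Ras with cyclophilin A, disrupting BRAF RBD binding. 10-point 3-fold dilution from 30 μM final, 3 h at 25° C, then anti-His Eu-W1024 (10 nM) and anti-GST allophycocyanin (50 nM) for 1.5 h. IC50 from TR-FRET ratio decrease versus DMSO.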

K-Ras G12C = K-Ras G12C (Homo sapiens (Human), UniProt P01116+P62937, G12C); experiment: Ras-Raf (BRAF RBD) disruption / FRET / MOA assay, KRAS G12C; type: biochemical; details: KRAS G12C; Ras-Raf disruption/FRET/MOA assay; read-out: IC50* KRAS G12C FRET data
Sequence of K-Ras G12C (P01116-2 other isoform, or with tags, fused parts or gaps G12C): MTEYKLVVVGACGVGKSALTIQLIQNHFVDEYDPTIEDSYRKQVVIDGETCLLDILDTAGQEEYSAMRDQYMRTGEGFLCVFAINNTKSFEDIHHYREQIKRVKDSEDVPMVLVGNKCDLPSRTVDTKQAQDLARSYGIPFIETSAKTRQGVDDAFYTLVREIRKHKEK
Sequence of K-Ras G12C (P62937 whole entry): as the sequence (P62937 whole entry, canonical isoform) above
Protocol: as §1, §2, §3, §4
as §2, with “Compound was” for “Compound is”, “allophycocyanin was” for “allophycocyanin is”, “a K-Ras:RAF” for “a Ras:RAF”, “complex were” for “complex are”

KRAS G12V = KRAS G12V (Homo sapiens (Human), UniProt P01116+P62937, G12V); experiment: Ras-Raf (BRAF RBD) disruption / FRET / MOA assay, KRAS G12V; type: biochemical; details: read-out: IC50* KRAS G12V FRET data
Sequence of KRAS G12V (P01116-2 other isoform, or with tags, fused parts or gaps G12V): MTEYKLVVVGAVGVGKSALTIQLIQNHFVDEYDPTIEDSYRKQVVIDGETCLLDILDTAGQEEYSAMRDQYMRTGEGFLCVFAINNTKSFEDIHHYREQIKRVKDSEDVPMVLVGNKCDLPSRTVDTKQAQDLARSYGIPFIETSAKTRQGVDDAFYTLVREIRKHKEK
Sequence of KRAS G12V (P62937 whole entry): as the sequence (P62937 whole entry, canonical isoform) above
Protocol: as §1, §2, §3, §4
as §2, with “Compound was” for “Compound is”, “allophycocyanin was” for “allophycocyanin is”, “a K-Ras:RAF” for “a Ras:RAF”, “complex were” for “complex are”

KRAS WT = KRAS WT (Homo sapiens (Human), UniProt P01116+P62937); experiment: Ras-Raf (BRAF RBD) disruption / FRET / MOA assay, KRAS WT; type: biochemical; details: read-out: IC50* KRAS WT FRET data
Sequence of KRAS WT (P01116-2 other isoform, or with tags, fused parts or gaps): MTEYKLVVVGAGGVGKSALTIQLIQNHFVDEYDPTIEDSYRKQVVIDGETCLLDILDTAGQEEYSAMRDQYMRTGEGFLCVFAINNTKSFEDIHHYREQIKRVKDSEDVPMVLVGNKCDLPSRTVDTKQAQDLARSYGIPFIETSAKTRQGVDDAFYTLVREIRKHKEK
Sequence of KRAS WT (P62937 whole entry): as the sequence (P62937 whole entry, canonical isoform) above
Protocol: as §1, §2, §3, §4
as §2, with “Compound was” for “Compound is”, “allophycocyanin was” for “allophycocyanin is”, “a K-Ras:RAF” for “a Ras:RAF”, “complex were” for “complex are”

KRAS G12S = KRAS G12S (Homo sapiens (Human), UniProt P01116+P62937, G12S); experiment: Ras-Raf (BRAF RBD) disruption / FRET / MOA assay, KRAS G12S; type: biochemical; details: Ras-Raf disruption/FRET/MOA assay; class symbols; read-out: KRAS G12S FRET data IC50
Sequence of KRAS G12S (P01116-2 other isoform, or with tags, fused parts or gaps G12S): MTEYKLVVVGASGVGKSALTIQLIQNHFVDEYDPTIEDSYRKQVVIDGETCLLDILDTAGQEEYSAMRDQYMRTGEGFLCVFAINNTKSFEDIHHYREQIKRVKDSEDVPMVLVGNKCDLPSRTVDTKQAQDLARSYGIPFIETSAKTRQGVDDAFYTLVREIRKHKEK
Sequence of KRAS G12S (P62937 whole entry): as the sequence (P62937 whole entry, canonical isoform) above
In short: as §5

NCI-H358 (K-Ras G12C) = experiment: CellTiter-Glo cell viability assay, NCI-H358; type: cell-based, human; details: NCI-H358, 5-day treatment, class symbols, read-out: Additional H358 Cell Viability assay data (K-Ras G12C, IC50)
In short: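 Luminescent viability readout on day 5 after direct compound addition to plated cells; plates sat ~30 min at room temperature before reading. Values expressed as percent of mean DMSO signal, curves fit with a four-parameter logistic model.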

NRAS G12C = NRAS G12C (Homo sapiens (Human), UniProt P01111+P62937, G12C); experiment: Ras-Raf (BRAF RBD) disruption / FRET / MOA assay, NRAS G12C; type: biochemical; details: read-out: IC50* NRAS G12C FRET data
Sequence of NRAS G12C (P01111 whole entry G12C): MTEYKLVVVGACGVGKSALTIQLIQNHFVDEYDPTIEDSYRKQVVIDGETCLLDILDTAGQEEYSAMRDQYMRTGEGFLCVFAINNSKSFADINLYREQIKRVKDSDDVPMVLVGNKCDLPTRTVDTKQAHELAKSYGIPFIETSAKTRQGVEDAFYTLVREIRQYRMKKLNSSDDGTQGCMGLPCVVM
Sequence of NRAS G12C (P62937 whole entry): as the sequence (P62937 whole entry, canonical isoform) above
Protocol: as §1, §2
This protocol may also be executed substituting other Ras proteins or nucleotides. […]

Row | SMILES | EC50 [1] | IC50 (K-Ras G13C) | IC50 (KRAS G12D) | IC50 (K-Ras G12C) | IC50 (KRAS G12V) | IC50 (KRAS WT) | IC50 (KRAS G12S) | IC50 (NCI-H358 (K-Ras G12C); Homo sapiens, NCI-H358, 120 h) | IC50 (NRAS G12C) | IC50 (NCI-H358 (K-Ras G12C))
1 | C=CC(=O)N1CC[C@]2(CCCN([C@H](C(=O)N[C@H]3Cc4cc(O)cc(c4)-c4ccc5c(c4)c(c(-c4ccccc4CCOC)n5CC)CC(C)(C)COC(=O)[C@@H]4CCCN(N4)C3=O)C(C)C)C2=O)C1 [Example A217] | < 5 µM | 1 to 10 µM and > 10 µM | > 10 µM | 0.1 to 1 µM and > 10 µM | 1 to 10 µM and > 10 µM | 1 to 10 µM and > 10 µM | 1 to 10 µM and > 10 µM | – | – | –
2 | CCn1c(-c2ccccc2CCOC)c2c3cc(ccc31)-c1cc(O)cc(c1)C[C@H](NC(=O)[C@H](C(C)C)N(C)C(=O)c1ccc(NC(=O)/C=C/CN(C)C)nc1)C(=O)N1CCC[C@H](N1)C(=O)OCC(C)(C)C2 [Example A218] | < 5 µM | 0.01 to 0.1 µM and 0.1 to 1 µM | 1 to 10 µM | 0.1 to 1 µM and 1 to 10 µM | 1 to 10 µM and > 10 µM | > 10 µM | > 10 µM | > 1 µM | – | –
3 | C=CC(=O)N1CC[C@H](C(=O)N(C)[C@H](C(=O)N[C@H]2Cc3nc(cs3)-c3ccc4c(c3)c(c(-c3cc(C5=CCN(C)CC5)cnc3[C@H](C)OC)n4CC)CC(C)(C)COC(=O)[C@@H]3CCCN(N3)C2=O)C(C)C)C1 (atropisomer, axis not shown) [Example A521] | < 5 µM | – | > 10 µM | 1 to 10 µM | – | – | 1 to 10 µM | – | 1 to 10 µM | –
4 | C=CC(=O)N1CC[C@H](C(=O)N(C)[C@H](C(=O)NC2C[C@H]3CN(CCCO3)c3ccc4c(c3)c(c(-c3cccnc3[C@H](C)OC)n4CC)CC(C)(C)COC(=O)[C@@H]3CCCN(N3)C2=O)C(C)C)C1 (stereo partly drawn) [Example A429] | – | – | > 10 µM | > 10 µM | – | – | > 10 µM | – | – | > 1 µM
5 | CCn1c(-c2ccccc2CCOC)c2c3cc(ccc31)-c1cc(O)cc(c1)C[C@H](NC(=O)[C@H](C(C)C)N(C)C(=O)c1ccc(NC(=O)/C=C/CN(C)C)cn1)C(=O)N1CCC[C@H](N1)C(=O)OCC(C)(C)C2 [Example A224] | < 5 µM | 0.01 to 0.1 µM and 0.1 to 1 µM | 1 to 10 µM | 0.1 to 1 µM and 1 to 10 µM | 1 to 10 µM and > 10 µM | > 10 µM | > 10 µM | > 1 µM | – | –

Continued, in another order:

Row | EC50 [1] | IC50 (K-Ras G13C) | IC50 (KRAS G12D) | IC50 (K-Ras G12C) | IC50 (KRAS G12V) | IC50 (KRAS WT) | IC50 (KRAS G12S) | IC50 (NCI-H358 (K-Ras G12C); Homo sapiens, NCI-H358, 120 h) | IC50 (NRAS G12C) | SMILES | IC50 (NCI-H358 (K-Ras G12C))
6 | < 5 µM | > 10 µM and 1 to 10 µM | > 10 µM | 0.1 to 1 µM and > 10 µM | 1 to 10 µM and > 10 µM | > 10 µM | 1 to 10 µM and > 10 µM | – | – | CC#CC(=O)N1CC[C@H](C(=O)N(C)[C@H](C(=O)N[C@H]2Cc3cc(O)cc(c3)-c3ccc4c(c3)c(c(-c3ccccc3CCOC)n4CC)CC(C)(C)COC(=O)[C@@H]3CCCN(N3)C2=O)C(C)C)C1 [Example A221] | –
7 | < 5 µM | > 10 µM | > 10 µM | 1 µM to 10 µM (2×) and > 10 µM (2×) | > 10 µM | > 10 µM | > 10 µM | 0.1 to 1 µM | – | C=CC(=O)N1CC[C@H](C(=O)N(C)[C@H](C(=O)N[C@H]2Cc3cc(O)cc(c3)-c3ccc4c(c3)c(c(-c3ccccc3CCOC)n4CC)CC(C)(C)COC(=O)[C@]3(C)CCCN(N3)C2=O)C(C)C)C1 [Example A219] | –
8 | – | > 10 µM | > 10 µM | 0.1 to 1 µM and > 10 µM | 1 to 10 µM and > 10 µM | > 10 µM | 1 to 10 µM and > 10 µM | > 1 µM | – | C=CC(=O)N1CC[C@H](C(=O)N(C)[C@H](C(=O)N[C@H]2Cc3cc(O)cc(c3)-c3ccc4c(c3)c(c(-c3ccc(OCC(=O)O)cc3)n4CC)CC(C)(C)COC(=O)[C@@H]3CCCN(N3)C2=O)C(C)C)C1 [Example A223] | –
